The record followed here is US10479784B2, “Substituted pyrazin-2-amines as inhibitors of ATR kinase” (Vertex Pharmaceuticals Incorporated, priority 2008, dated 2019).

Chain of full-length ATR (Q13535 whole entry): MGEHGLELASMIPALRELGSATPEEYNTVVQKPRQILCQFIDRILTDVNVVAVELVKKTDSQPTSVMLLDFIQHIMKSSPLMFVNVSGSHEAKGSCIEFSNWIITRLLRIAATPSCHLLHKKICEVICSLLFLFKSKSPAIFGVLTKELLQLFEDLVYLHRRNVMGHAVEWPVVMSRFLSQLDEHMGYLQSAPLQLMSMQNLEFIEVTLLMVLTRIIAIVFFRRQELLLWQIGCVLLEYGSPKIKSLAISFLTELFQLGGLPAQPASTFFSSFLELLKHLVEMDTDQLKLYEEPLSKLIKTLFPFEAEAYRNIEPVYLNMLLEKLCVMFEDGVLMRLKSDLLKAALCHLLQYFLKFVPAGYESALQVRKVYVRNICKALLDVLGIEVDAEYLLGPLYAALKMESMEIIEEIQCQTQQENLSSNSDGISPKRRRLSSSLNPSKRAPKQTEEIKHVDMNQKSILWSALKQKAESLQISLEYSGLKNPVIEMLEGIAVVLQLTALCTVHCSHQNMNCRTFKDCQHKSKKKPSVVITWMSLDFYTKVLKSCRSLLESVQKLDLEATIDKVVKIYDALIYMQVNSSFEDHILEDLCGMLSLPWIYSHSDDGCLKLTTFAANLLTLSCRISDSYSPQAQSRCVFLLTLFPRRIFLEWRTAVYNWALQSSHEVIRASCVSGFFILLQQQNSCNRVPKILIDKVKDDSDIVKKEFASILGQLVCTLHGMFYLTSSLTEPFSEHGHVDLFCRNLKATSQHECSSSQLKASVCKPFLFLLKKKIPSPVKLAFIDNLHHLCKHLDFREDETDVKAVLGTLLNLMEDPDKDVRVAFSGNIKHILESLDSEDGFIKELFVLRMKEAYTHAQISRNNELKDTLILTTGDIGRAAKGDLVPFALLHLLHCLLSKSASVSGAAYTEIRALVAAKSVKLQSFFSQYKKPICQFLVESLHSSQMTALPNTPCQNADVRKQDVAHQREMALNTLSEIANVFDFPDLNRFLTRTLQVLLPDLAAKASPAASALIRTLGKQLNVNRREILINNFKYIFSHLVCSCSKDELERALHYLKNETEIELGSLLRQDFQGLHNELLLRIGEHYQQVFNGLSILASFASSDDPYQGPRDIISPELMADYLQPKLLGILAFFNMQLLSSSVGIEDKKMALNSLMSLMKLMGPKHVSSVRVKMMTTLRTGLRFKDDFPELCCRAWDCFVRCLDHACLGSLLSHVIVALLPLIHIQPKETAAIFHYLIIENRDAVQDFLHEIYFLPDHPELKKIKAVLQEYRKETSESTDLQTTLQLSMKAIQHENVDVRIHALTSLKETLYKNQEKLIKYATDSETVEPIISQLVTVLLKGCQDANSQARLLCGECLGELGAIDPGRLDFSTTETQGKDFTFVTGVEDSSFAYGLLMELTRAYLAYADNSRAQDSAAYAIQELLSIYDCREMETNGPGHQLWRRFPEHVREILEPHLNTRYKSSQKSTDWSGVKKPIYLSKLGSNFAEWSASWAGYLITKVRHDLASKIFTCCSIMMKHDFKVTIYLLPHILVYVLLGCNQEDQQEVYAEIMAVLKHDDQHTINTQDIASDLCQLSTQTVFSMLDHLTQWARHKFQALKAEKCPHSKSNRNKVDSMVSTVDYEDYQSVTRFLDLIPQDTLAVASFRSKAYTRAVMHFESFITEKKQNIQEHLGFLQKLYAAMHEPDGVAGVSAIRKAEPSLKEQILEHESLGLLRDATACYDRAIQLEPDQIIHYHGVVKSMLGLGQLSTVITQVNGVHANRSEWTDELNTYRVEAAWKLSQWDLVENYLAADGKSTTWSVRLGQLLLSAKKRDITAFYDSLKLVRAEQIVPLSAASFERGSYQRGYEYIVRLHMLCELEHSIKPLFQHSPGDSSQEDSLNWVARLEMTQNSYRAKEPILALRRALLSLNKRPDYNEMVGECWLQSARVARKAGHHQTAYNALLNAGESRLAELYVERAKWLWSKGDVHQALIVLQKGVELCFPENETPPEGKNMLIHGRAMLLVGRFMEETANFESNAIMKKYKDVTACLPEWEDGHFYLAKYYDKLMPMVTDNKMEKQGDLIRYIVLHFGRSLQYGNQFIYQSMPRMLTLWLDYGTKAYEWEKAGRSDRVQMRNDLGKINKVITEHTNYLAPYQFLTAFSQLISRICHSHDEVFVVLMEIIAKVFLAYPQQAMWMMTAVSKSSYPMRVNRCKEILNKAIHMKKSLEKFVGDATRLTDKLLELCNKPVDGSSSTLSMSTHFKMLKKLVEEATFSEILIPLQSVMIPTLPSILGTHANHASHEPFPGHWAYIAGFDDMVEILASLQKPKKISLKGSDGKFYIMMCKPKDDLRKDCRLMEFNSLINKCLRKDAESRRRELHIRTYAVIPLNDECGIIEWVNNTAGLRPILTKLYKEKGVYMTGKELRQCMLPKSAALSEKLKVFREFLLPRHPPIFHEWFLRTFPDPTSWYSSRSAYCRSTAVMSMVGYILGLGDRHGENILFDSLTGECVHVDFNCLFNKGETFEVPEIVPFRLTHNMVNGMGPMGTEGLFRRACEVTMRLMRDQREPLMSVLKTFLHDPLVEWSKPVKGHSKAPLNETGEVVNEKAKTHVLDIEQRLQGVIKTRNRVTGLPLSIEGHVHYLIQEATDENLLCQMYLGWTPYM

In the assay the target is full-length ATR (Homo sapiens (Human), UniProt Q13535). In words: ATR Inhibition Assay (radioactive-phosphate incorporation). The format is biochemical. The following applies: read-out: ATR Ki. The essentials:
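Ki(app) was derived by non-linear regression of background-corrected initial rates of 33P incorporation into an 800 μM target peptide, read by phosphocellulose filter scintillation counting. Reaction conditions: 5 nM full-length ATR, 10 μM [γ-33P]ATP, pH 7.5 Tris buffer with MgCl2 and DTT, 25 °C, 10-min preincubation, 24 h run.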
In the case of `Nc1ncc(-c2ccccc2Br)nc1-c1nnc(-c2ccccc2)o1` [IA-176, 5-(2-bromophenyl)-3-(5-phenyl-1,3,4-oxadiazol-2-yl)pyrazin-2-amine], the Ki fell in the range of 100 to 5000 nM.
The figure for `Nc1ncc(-c2ccc(C(=O)N3CCCOCC3)cc2)nc1-c1nnc(-c2ccccc2)o1` [IA-15] is ≤ 10 nM.
As for `Cc1ccc2nc(-c3nc(-c4ccc(C(=O)N5CCCN(C)CC5)cc4)cnc3N)[nH]c2c1` [III-5, (4-(5-amino-6-(6-methyl-1H-benzo[d]imidazol-2-yl)pyrazin-2-yl)phenyl)(4-methyl-1,4-diazepan-1-yl)methanone], the Ki lay within 10 to 100 nM.
The figure for `CN(C)[C@@H]1CCN(S(=O)(=O)c2ccc(-c3cnc(N)c(-c4nnc(-c5ccccc5)o4)n3)cc2)C1` [IA-25] is 10 to 100 nM.
The figure for `CC(C)S(=O)(=O)c1ccc(-c2cnc(N)c(-c3nnc(-c4ccc(CCN)cc4)o3)n2)cc1` [IA-107, 3-[5-[4-(2-aminoethyl)phenyl]-1,3,4-oxadiazol-2-yl]-5-(4-isopropylsulfonylphenyl)pyrazin-2-amine] is ≤ 10 nM; for `Nc1ncc(-c2ccc(S(=O)(=O)C3CCNCC3)cc2)nc1-c1nnc(-c2ccccc2)o1` [IA-197, 3-(5-phenyl-1,3,4-oxadiazol-2-yl)-5-[4-(4-piperidylsulfonyl)phenyl]pyrazin-2-amine] it is ≤ 10 nM; for `Nc1ncc(-c2ccc(C(=O)N3CCCNCC3)nc2)nc1-c1nnc(-c2ccccc2)o1` [IA-47] it is ≤ 10 nM.
Next, `Cc1ccsc1-c1nnc(-c2nc(-c3ccc(C(=O)N4CCCNCC4)cc3C#N)cnc2N)o1` [IA-181, 2-(5-amino-6-(5-(3-methylthiophen-2-yl)-1,3,4-oxadiazol-2-yl)pyrazin-2-yl)-5-(1,4-diazepane-1-carbonyl)benzonitrile]: ≤ 10 nM.
With `CC(C)S(=O)(=O)c1ccc(-c2cnc(N)c(-c3nnc(C(=O)N4CC(N)C4)o3)n2)cc1` [IA-120, (3-aminoazetidin-1-yl)-[5-[3-amino-6-(4-isopropylsulfonylphenyl)pyrazin-2-yl]-1,3,4-oxadiazol-2-yl]methanone], the Ki is 10 to 100 nM.
The figure for `COc1ccc2nc(-c3nc(-c4ccc(S(C)(=O)=O)cc4)cnc3N)[nH]c2c1` [Compound I-115, 3-(6-methoxy-1H-benzo[d]imidazol-2-yl)-5-(4-(methylsulfonyl)phenyl) pyrazin-2-amine] is 10 to 100 nM.
The figure for `Nc1ncc(-c2cccc(C(=O)N3CCOCC3)c2)nc1-c1nc2ccccc2[nH]1` [Compound I-125, (3-(5-amino-6-(1H-benzo[d]imidazol-2-yl)pyrazin-2-yl)phenyl) (morpholino)methanone] is 10 to 100 nM; for `Nc1ncc(-c2cccnc2)nc1-c1nnc(-c2ccccc2)o1` [IA-64] it is 10 to 100 nM.
Next, `CN(C)C(=O)c1ccc(-c2cnc(N)c(-c3nnc(-c4cccc(N)c4)o3)n2)cc1` [IA-142, 4-[5-amino-6-[5-(3-aminophenyl)-1,3,4-oxadiazol-2-yl]pyrazin-2-yl]-N,N-dimethyl-benzamide]: ≤ 10 nM; `CC(C)S(=O)(=O)c1ccc(-c2cnc(N)c(-c3nnc(-c4cc(C#N)cs4)o3)n2)cc1` [IA-143, 5-[5-[3-amino-6-(4-isopropylsulfonylphenyl)pyrazin-2-yl]-1,3,4-oxadiazol-2-yl]thiophene-3-carbonitrile]: 10 to 100 nM.
In the case of `Nc1ncc(-c2cccnc2)nc1-c1nnc(-c2cccs2)[nH]1` [Compound I-142, 5-(pyridin-3-yl)-3-(5-(thiophen-2-yl)-4H-1,2,4-triazol-3-yl)pyrazin-2-amine], the Ki was 10 to 100 nM.
Next, `CN(C)C(=O)c1ccc(-c2cnc(N)c(-c3nnc(-c4ccccc4F)o3)n2)cc1` [IA-30]: ≤ 10 nM; `CNCc1ccc(-c2cc(-c3nc(-c4ccc(S(=O)(=O)C(C)C)cc4)cnc3N)on2)c(F)c1` [IIA-14, 3-[3-[2-fluoro-4-(methylaminomethyl)phenyl]isoxazol-5-yl]-5-(4-isopropylsulfonylphenyl)pyrazin-2-amine]: ≤ 10 nM; `CC(C)S(=O)(=O)c1ccc(-c2cnc(N)c(-c3nnc(-c4ccc(CNC[C@@H](C)O)cc4F)o3)n2)cc1` [IA-341, (R)-1-(4-(5-(3-amino-6-(4-(isopropylsulfonyl)phenyl)pyrazin-2-yl)-1,3,4-oxadiazol-2-yl)-3-fluorobenzylamino)propan-2-ol]: ≤ 10 nM.
The figure for `CNCc1csc(-c2nnc(-c3nc(-c4ccc(S(=O)(=O)C(C)C)cc4)cnc3N)o2)c1` [IA-226, 5-(4-isopropylsulfonylphenyl)-3-[5-[4-(methylaminomethyl)-2-thienyl]-1,3,4-oxadiazol-2-yl]pyrazin-2-amine] is ≤ 10 nM; for `CNCc1ccc(-c2nnc(-c3nc(-c4ccc(S(=O)(=O)C(C)C)cc4F)cnc3N)o2)cc1` [IA-292, 5-(2-fluoro-4-isopropylsulfonyl-phenyl)-3-[5-[4-(methylaminomethyl)phenyl]-1,3,4-oxadiazol-2-yl]pyrazin-2-amine] it is ≤ 10 nM.
Next, `CN(C)C(=O)c1ccc(-c2cnc(N)c(-c3nnc(N4CCC4)o3)n2)cc1` [IA-192, 4-[5-amino-6-[5-(azetidin-1-yl)-1,3,4-oxadiazol-2-yl]pyrazin-2-yl]-N,N-dimethyl-benzamide]: 100 to 5000 nM; `Nc1ncc(-c2ccccc2)nc1-c1nc2ccccc2[nH]1` [Compound I-110, 3-(1H-benzo[d]imidazol-2-yl)-5-phenylpyrazin-2-amine]: 100 to 5000 nM; `Nc1ncc(-c2cccc(OC(F)(F)F)c2)nc1-c1nnc(-c2ccccc2)o1` [IA-150, 3-(5-phenyl-1,3,4-oxadiazol-2-yl)-5-[3-(trifluoromethoxy)phenyl]pyrazin-2-amine]: 100 to 5000 nM.
For the compound `CC(CCN(C)C)S(=O)(=O)c1ccc(-c2cnc(N)c(-c3nnc(-c4ccccc4F)o3)n2)cc1` (centres unmarked) [IA-343, 5-[4-[3-(dimethylamino)-1-methyl-propyl]sulfonylphenyl]-3-[5-(2-fluorophenyl)-1,3,4-oxadiazol-2-yl]pyrazin-2-amine], the Ki was ≤ 10 nM.
Next, `Nc1ncc(-c2ccccc2CO)nc1-c1nc2ccccc2[nH]1` [Compound I-127, (2-(5-amino-6-(1H-benzo[d]imidazol-2-yl)pyrazin-2-yl)phenyl)methanol]: 100 to 5000 nM; `CC(C)S(=O)(=O)c1ccc(-c2cnc(N)c(-c3nnc(-c4ccc(CNC5COC5)cc4F)o3)n2)cc1` [IA-319, 3-[5-[2-fluoro-4-[(oxetan-3-ylamino)methyl]phenyl]-1,3,4-oxadiazol-2-yl]-5-(4-isopropylsulfonylphenyl)pyrazin-2-amine]: ≤ 10 nM; `CNCc1ccc(-c2nnc(-c3nc(-c4ccc(S(=O)(=O)CCCO)cc4)cnc3N)o2)cc1` [IA-301, 3-[4-[5-amino-6-[5-[4-(methylaminomethyl)phenyl]-1,3,4-oxadiazol-2-yl]pyrazin-2-yl]phenyl]sulfonylpropan-1-ol]: ≤ 10 nM.
In the case of `COc1ccncc1NC(=O)c1nc(-c2ccc(S(C)(=O)=O)cc2)cnc1N` [VII-9], the Ki is ≤ 10 nM.
For the compound `CN(C)C(=O)c1ccc(-c2cnc(N)c(-c3nnc(-c4ccc(F)cc4)o3)n2)cc1` [IA-36], the Ki was in the range of 10 to 100 nM.
The figure for `Nc1ncc(-c2cccc(C(=O)NC3CCOCC3)c2)nc1C(=O)Nc1ccccc1` [Compound I-66, 3-amino-N-phenyl-6-(3-(tetrahydro-2H-pyran-4-ylcarbamoyl)phenyl) pyrazine-2-carboxamide] is 10 to 100 nM; for `CNCc1cccc(NC(=O)c2nc(-c3ccc(S(C)(=O)=O)cc3)cnc2N)c1` [VII-13] it is 10 to 100 nM; for `CCCCOC(=O)c1nnc(-c2nc(-c3ccc(S(=O)(=O)C(C)C)cc3)cnc2N)o1` [IA-113, butyl 5-[3-amino-6-(4-isopropylsulfonylphenyl)pyrazin-2-yl]-1,3,4-oxadiazole-2-carboxylate] it is 10 to 100 nM.
As for `Nc1ncc(-c2ccc(S(=O)(=O)N3CCCC3)cc2)nc1-c1nc2ccccc2[nH]1` [Compound I-134, 3-(1H-benzo[d]imidazol-2-yl)-5-(4-(pyrrolidin-1-ylsulfonyl)phenyl) pyrazin-2-amine], the Ki is ≤ 10 nM.
Next, `Nc1ncc(-c2ccncc2)nc1-c1nnc(-c2cccs2)o1` [IA-141, 5-(4-pyridyl)-3-[5-(2-thienyl)-1,3,4-oxadiazol-2-yl]pyrazin-2-amine]: ≤ 10 nM; `CC(C)S(=O)(=O)c1ccc(-c2cnc(N)c(-c3nnc(CCN)o3)n2)cc1` [IA-214, 3-[5-(2-aminoethyl)-1,3,4-oxadiazol-2-yl]-5-(4-isopropylsulfonylphenyl)pyrazin-2-amine]: 10 to 100 nM; `CNCc1ccc(-c2nnc(-c3nc(-c4ccc(S(=O)(=O)C(C)C)cc4)cnc3N)o2)s1` [IA-140, 5-(4-isopropylsulfonylphenyl)-3-[5-[5-(methylaminomethyl)-2-thienyl]-1,3,4-oxadiazol-2-yl]pyrazin-2-amine]: ≤ 10 nM.
For the compound `CNCc1ccc(-c2nnc(-c3nc(-c4ccc(S(=O)(=O)C5CCOC5)cc4)cnc3N)o2)cc1` (centres unmarked) [IA-302, 3-[5-[4-(methylaminomethyl)phenyl]-1,3,4-oxadiazol-2-yl]-5-(4-tetrahydrofuran-3-ylsulfonylphenyl)pyrazin-2-amine], the Ki is ≤ 10 nM.
The figure for `CCc1ncccc1NC(=O)c1nc(-c2ccc(S(C)(=O)=O)cc2)cnc1N` [VII-4] is 10 to 100 nM; for `CS(=O)(=O)c1ccc(-c2cnc(N)c(-c3nc4ccc(Cl)cc4[nH]3)n2)cc1` [Compound I-114, 3-(6-chloro-1H-benzo[d]imidazol-2-yl)-5-(4-(methylsulfonyl)phenyl) pyrazin-2-amine] it is ≤ 10 nM; for `CC(C)S(=O)(=O)c1ccc(-c2cnc(N)c(-c3nnc(-c4ccc(CNC5CC5)cc4)o3)n2)cc1` [IA-158, 3-[5-[4-[(cyclopropylamino)methyl]phenyl]-1,3,4-oxadiazol-2-yl]-5-(4-isopropylsulfonylphenyl)pyrazin-2-amine] it is ≤ 10 nM.
As for `Nc1ncc(-c2ccco2)nc1C(=O)Nc1ccccc1` [Compound I-41, 3-amino-6-(furan-2-yl)-N-phenylpyrazine-2-carboxamide], the Ki lay within 100 to 5000 nM.
